This is an account of results in patent US10166235B2, “Kinetin/zeatin topical formulation” (Dow Pharmaceutical Sciences, Inc., priority 2013, dated 2019).

A short description of data set [1]: Comparison with prior art formulations: dissolved kinetin or zeatin in GDM-12, Transcutol, isostearic acid and mixtures by HPLC. Conditions: for Synergistic Increase in Solubility %: zeatin. The protocol:
Kinetin was combined and mixed in separate beakers containing GDM-12, Transcutol, and Isostearic Acid, and the concentration of dissolved kinetin in each beaker was determined by HPLC. Kinetin was then combined and mixed in separate beakers containing GDM-12 and Transcutol (1:1) and containing GDM-12 and Isostearic acid.
Zeatin was combined and mixed in separate beakers containing GDM-12, Transcutol, and Isostearic Acid, and the concentration of dissolved zeatin in each beaker was determined by HPLC. Zeatin was then combined and mixed in separate beakers containing GDM-12 and Transcutol (1:1) and containing GDM-12 and Isostearic acid.

A short description of data set [2]: Solubility of kinetin or zeatin alone in GDM-12, GDO-12, isostearic acid and 50:50 mixtures, determined by HPLC. The settings on record: for calculated solubility: based on independent solubility in each solvent. The protocol: (§1) Solubilization of kinetin and zeatin was determined by HPLC.
For data set [3] the following is noted: distilled water / water; cited from earlier work.
Data set [4] can be described thus: Solubility of kinetin or zeatin when both kinetin and zeatin are dissolved, determined by HPLC. As to the method:
as §1

Where [5] appears, read: solvent GDM-12 + Isostearic Acid.
[6] abbreviates: solvent GDM-12 + Transcutol (1:1).
[7] abbreviates: 50% GDM-12 and 50% isostearic acid.
Setting [8] is: 50% GDO-12 and 50% isostearic acid.

In the case of `c1coc(CNc2ncnc3nc[nH]c23)c1` [Kinetin, N^6-furfuryladenine], the “Kinetin % w/w Experimental” value in data set [1] (solvent GDM-12) is recorded as “.164 % w/w”; in data set [1] (setting [5]), “.422 % w/w”; in data set [1] (setting [6]), “.287 % w/w”; in data set [1] (solvent Isostearic Acid) it was “.299 % w/w”; in data set [1] (solvent Transcutol) it was “.397 % w/w”. Further, the “Kinetin % w/w Calculated” value in data set [1] (setting [5]) is on record as “.229 % w/w”; in data set [1] (setting [6]) it was “.281 % w/w”.

As for `C/C(=C\CNc1ncnc2nc[nH]c12)CO` [Zeatin, (E)-2-methyl-4-(7H-purin-6-ylamino)but-2-en-1-ol], the “increase over the calculated solubility” value is on record as 109% in data set [2] (setting [7]); 100% in data set [2] (setting [8]); 121% in data set [4] (both kinetin and zeatin dissolved, 50% GDM-12 and 50% isostearic acid). Also, the calculated solubility in data set [2] (setting [7]) is on record as 0.21 wt %; in data set [2] (setting [8]), 0.20 wt %; in data set [4] (both kinetin and zeatin combined, 50% GDM-12 and 50% isostearic acid), 0.19 wt %. Besides, the solubility in data set [2] (in 50% GDM-12 and 50% isostearic acid) is reported as 0.44 % w/w; in data set [2] (in 50% GDO-12 and 50% isostearic acid) it was 0.40 % w/w; in data set [2] (in 100% GDM-12 (PEG-12 Glycerol dimyristate)) it was 0.12 % w/w; in data set [2] (in 100% GDO-12 (PEG-12 Glycerol dioleate)) it was 0.10 % w/w; in data set [2] (in 100% isostearic acid), 0.30 % w/w; in data set [4] (both kinetin and zeatin dissolved, in 50% GDM-12 and 50% isostearic acid) it was 0.42 % w/w. Further, the solubility in data set [4] (both kinetin and zeatin dissolved, in 100% GDM-12) is on record as 0.10 % w/w; in data set [4] (both kinetin and zeatin dissolved, in 100% isostearic acid), 0.28 % w/w. Moreover, the “Zeatin % w/w Experimental” value was “.119 % w/w” in data set [1] (solvent GDM-12); “.440 % w/w” in data set [1] (setting [5]); “.365 % w/w” in data set [1] (setting [6]); “.299 % w/w” in data set [1] (solvent Isostearic Acid); “.570 % w/w” in data set [1] (solvent Transcutol). Further, the “Zeatin % w/w Calculated” value in data set [1] (setting [5]) is given as “.229 % w/w”; in data set [1] (setting [6]), “.345 % w/w”. For the same molecule, the “Synergistic Increase in Solubility %” value in data set [1] (setting [5]) is recorded as 92%; in data set [1] (solvent GDM-12 + Isostearic Acid, listed as zeatin), 92%; in data set [1] (setting [6]) it was 0%; in data set [1] (solvent GDM-12 + Transcutol (1:1), listed as zeatin) it was “does not provide a synergistic increase”. Moreover, in data set [3], the solubility in water result is reported as “practically insoluble”.
